The results in this text go back to ChEMBL document CHEMBL2346515, “Discovery of 4-alkylamino-7-aryl-3-cyanoquinoline LRRK2 kinase inhibitors” (Bioorg Med Chem Lett, 2013).

The inhibition is the relative decrease from the control value, in per cent. The term inhibition in vivo denotes the drop in the measured response relative to a control, in per cent.

In data set [1] the target is T1, Aurora kinase A (Homo sapiens) (UniProt O14965).
T1 sequence (whole entry): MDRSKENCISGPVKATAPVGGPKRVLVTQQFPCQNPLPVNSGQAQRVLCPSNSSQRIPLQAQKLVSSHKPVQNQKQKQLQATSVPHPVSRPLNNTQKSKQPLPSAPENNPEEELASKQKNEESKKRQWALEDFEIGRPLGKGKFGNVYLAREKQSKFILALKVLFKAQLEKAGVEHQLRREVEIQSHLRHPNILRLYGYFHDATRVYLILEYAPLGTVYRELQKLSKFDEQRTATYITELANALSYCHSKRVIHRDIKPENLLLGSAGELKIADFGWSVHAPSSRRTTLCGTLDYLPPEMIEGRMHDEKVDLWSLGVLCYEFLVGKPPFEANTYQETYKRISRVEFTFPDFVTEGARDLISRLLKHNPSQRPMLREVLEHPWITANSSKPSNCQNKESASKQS
Kind of data set: Inhibition of AURKA (unknown origin) at 1 uM by single point assay.

In data set [2] the target is Serine/threonine-protein kinase PLK3 (Homo sapiens) (UniProt Q9H4B4). The experiment in a line: Inhibition of PLK3 (unknown origin) at 1 uM by single point assay.
Data set [3] has as its target Protein kinase C beta type (Homo sapiens) (UniProt P05771). The experiment in a line: Inhibition of PKCbeta1 (unknown origin) at 1 uM by single point assay.
The target of data set [4] is Receptor-type tyrosine-protein kinase FLT3 (Homo sapiens) (UniProt P36888). Kind of data set: Inhibition of FLT3 (unknown origin) at 10 uM by single point assay.
In data set [5] the target is Glycogen synthase kinase-3 beta (Homo sapiens) (UniProt P49841). The experiment in a line: Inhibition of GSK3beta (unknown origin) at 10 uM by single point assay.
Data set [6] concerns the target Serine/threonine-protein kinase MARK2 (Homo sapiens) (UniProt Q7KZI7). Kind of data set: Inhibition of MARK2 (unknown origin) at 10 uM by single point assay.
In data set [7] the target is Tyrosine-protein kinase JAK1 (Homo sapiens) (UniProt P23458). Kind of data set: Inhibition of JAK1 (unknown origin) at 10 uM by single point assay.
Data set [8] has as its target T2, Interleukin-1 receptor-associated kinase 4 (Homo sapiens) (UniProt Q9NWZ3).
T2 sequence (whole entry): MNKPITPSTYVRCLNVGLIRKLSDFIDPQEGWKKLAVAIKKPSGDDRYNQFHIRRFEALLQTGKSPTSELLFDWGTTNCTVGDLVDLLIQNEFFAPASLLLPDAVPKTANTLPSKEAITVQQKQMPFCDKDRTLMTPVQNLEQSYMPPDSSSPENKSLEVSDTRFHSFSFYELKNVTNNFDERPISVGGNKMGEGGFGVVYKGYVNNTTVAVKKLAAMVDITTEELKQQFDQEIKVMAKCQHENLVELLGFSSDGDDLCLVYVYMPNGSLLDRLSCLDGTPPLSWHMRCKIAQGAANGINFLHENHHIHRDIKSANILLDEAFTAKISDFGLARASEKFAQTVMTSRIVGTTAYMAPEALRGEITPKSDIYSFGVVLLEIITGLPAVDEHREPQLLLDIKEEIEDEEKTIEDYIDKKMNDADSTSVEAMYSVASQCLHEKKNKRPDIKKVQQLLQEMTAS
Kind of data set: Inhibition of IRAK4 (unknown origin) at 10 uM by single point assay.

Data set [9] deals with T3, Serine/threonine-protein kinase 3 (Homo sapiens) (UniProt Q13188).
T3 sequence (whole entry): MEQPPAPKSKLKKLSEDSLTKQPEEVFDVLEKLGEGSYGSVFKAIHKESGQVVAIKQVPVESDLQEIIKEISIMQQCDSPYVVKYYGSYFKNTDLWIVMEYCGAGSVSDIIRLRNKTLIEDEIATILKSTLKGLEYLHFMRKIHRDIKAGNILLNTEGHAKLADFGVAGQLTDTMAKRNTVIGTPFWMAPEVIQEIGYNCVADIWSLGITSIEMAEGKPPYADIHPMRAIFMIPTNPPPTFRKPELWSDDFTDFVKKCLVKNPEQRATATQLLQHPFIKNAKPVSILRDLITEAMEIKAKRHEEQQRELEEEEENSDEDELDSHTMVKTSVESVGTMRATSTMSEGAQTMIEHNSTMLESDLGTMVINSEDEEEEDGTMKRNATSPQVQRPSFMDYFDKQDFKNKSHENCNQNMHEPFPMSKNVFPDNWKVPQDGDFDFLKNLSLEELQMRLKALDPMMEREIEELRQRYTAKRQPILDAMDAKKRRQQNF
Kind of data set: Inhibition of STK3 (unknown origin) at 10 uM by single point assay.

Data set [10] concerns the target Cyclin-dependent kinase 1/cyclin B1 (Homo sapiens) (UniProt P06493+P14635). Kind of data set: Inhibition of CDK1/cyclin B (unknown origin) at 10 uM by single point assay. Format: protein-complex assay.
In data set [11] the target is Serine/threonine-protein kinase PAK 4 (Homo sapiens) (UniProt O96013). The experiment in a line: Inhibition of PAK4 (unknown origin) at 10 uM by single point assay.
The target in data set [12] is Dual specificity protein kinase CLK1 (Homo sapiens) (UniProt P49759). Kind of data set: Inhibition of CLK1 (unknown origin) at 10 uM by single point assay.
Data set [13] deals with Protein-tyrosine kinase 2-beta (Homo sapiens) (UniProt Q14289). The experiment in a line: Inhibition of PTK2B (unknown origin) at 10 uM by single point assay.
The target of data set [14] is Serine/threonine-protein kinase PLK1 (Homo sapiens) (UniProt P53350). Kind of data set: Inhibition of PLK1 (unknown origin) at 10 uM by single point assay.
The target of data set [15] is Platelet-derived growth factor receptor alpha (Homo sapiens) (UniProt P16234). The experiment in a line: Inhibition of PDGFRalpha (unknown origin) at 10 uM by single point assay.
Data set [16] addresses Tyrosine-protein kinase Lck (Homo sapiens) (UniProt P06239). Kind of data set: Inhibition of LCK (unknown origin) at 10 uM by single point assay.
In data set [17] the target is Cyclin-dependent kinase 5/CDK5 activator 1 (Homo sapiens) (UniProt Q00535+Q15078). Kind of data set: Inhibition of CDK5/p25 (unknown origin) at 10 uM by single point assay. Format: protein-complex assay.
Data set [18] has as its target T1, Aurora kinase A (Homo sapiens). Kind of data set: Inhibition of AURKA (unknown origin) at 10 uM by single point assay.
Data set [19] deals with cAMP-dependent protein kinase catalytic subunit alpha (Homo sapiens) (UniProt P17612). Kind of data set: Inhibition of PRKACA (unknown origin) at 10 uM by single point assay.
Data set [20] concerns the target Serine/threonine-protein kinase PLK2 (Homo sapiens) (UniProt Q9NYY3). The experiment in a line: Inhibition of PLK2 (unknown origin) at 10 uM by single point assay.
The test system of a further data set is Mus musculus. Kind of data set: In vivo inhibition of mouse LRRK2 G2019S mutant phosphorylation at Ser935 expressed in mouse brain at 100 mg/kg, po measured after 3 hrs by ELISA. Format: functional. (In general: An ELISA detects its analyte on a solid surface through an enzyme-linked reagent.)
Data set [21] can be described thus: Ratio of drug uptake in brain to plasma of mouse expressing mouse LRRK2 G2019S mutant at 30 mg/kg, po. Format: ADME, organism-based. More on the design: dose 30 mg/kg, route oral. Conditions: read-out: BPR.
The subject of the next data set is Brain. Kind of data set: Drug uptake in brain of mouse expressing mouse LRRK2 G2019S mutant at 100 mg/kg, po. The arrangement: dose 100 mg/kg, route oral. Format: ADME, organism-based. Particulars: in vivo.
The test system of the next data set is Plasma. Kind of data set: Plasma concentration in mouse expressing mouse LRRK2 G2019S mutant at 100 mg/kg, po. Conditions: in vivo. The arrangement: dose 100 mg/kg, route oral. Format: ADME, organism-based.

Sequence of Serine/threonine-protein kinase PLK3 (Homo sapiens) (Q9H4B4 whole entry, looked up): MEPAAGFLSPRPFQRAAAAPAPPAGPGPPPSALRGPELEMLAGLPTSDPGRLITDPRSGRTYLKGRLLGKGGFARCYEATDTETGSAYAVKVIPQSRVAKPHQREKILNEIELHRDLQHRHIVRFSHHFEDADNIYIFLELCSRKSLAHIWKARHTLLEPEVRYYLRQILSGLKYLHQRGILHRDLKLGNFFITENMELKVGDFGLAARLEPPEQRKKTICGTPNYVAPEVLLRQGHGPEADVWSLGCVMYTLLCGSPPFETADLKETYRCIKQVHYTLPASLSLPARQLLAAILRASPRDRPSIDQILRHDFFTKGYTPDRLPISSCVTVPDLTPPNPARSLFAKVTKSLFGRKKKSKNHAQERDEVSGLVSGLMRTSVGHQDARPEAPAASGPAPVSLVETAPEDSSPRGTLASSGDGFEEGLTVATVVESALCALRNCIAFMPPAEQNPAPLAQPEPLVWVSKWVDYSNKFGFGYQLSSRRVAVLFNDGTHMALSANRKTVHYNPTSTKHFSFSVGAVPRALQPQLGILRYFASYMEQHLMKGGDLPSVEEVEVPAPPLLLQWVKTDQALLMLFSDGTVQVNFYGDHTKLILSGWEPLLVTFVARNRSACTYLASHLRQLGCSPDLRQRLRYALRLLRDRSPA
Sequence of Protein kinase C beta type (Homo sapiens) (P05771 2-671 limits assumed): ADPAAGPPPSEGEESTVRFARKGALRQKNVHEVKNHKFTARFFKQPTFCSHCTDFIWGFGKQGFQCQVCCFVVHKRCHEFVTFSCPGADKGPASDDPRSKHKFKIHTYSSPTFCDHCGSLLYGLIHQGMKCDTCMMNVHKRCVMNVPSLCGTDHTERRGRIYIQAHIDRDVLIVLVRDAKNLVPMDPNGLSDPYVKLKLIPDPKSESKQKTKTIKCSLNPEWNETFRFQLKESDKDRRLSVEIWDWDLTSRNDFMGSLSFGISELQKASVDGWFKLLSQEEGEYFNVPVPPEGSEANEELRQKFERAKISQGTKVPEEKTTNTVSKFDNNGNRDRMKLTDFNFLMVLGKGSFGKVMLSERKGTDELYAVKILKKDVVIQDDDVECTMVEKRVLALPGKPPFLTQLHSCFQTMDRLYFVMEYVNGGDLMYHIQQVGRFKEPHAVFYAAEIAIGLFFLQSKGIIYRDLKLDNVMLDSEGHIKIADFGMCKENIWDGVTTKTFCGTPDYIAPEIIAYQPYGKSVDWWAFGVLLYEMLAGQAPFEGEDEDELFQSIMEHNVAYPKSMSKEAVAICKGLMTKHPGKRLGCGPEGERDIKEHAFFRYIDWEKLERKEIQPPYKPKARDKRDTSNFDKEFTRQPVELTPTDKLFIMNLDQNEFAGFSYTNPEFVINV
Sequence of Serine/threonine-protein kinase PLK2 (Homo sapiens) (Q9NYY3 whole entry, looked up): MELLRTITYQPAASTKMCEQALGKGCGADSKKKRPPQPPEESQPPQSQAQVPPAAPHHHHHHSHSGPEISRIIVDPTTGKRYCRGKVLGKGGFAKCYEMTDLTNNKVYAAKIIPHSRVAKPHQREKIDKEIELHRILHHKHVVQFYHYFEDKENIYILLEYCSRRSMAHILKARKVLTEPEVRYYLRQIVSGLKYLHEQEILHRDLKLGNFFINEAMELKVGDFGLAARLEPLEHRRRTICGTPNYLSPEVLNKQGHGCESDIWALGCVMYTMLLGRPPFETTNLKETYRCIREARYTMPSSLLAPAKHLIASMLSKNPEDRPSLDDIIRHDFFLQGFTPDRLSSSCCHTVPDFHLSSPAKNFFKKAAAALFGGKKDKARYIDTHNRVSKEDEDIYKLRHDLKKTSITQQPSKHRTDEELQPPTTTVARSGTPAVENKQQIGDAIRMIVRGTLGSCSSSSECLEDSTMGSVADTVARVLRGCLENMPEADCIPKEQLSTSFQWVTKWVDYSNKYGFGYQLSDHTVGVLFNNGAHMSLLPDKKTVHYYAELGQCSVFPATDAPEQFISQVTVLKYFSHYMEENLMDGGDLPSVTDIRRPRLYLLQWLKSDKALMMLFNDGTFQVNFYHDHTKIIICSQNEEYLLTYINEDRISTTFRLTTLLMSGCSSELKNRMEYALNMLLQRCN
Sequence of Glycogen synthase kinase-3 beta (Homo sapiens) (P49841 whole entry, looked up): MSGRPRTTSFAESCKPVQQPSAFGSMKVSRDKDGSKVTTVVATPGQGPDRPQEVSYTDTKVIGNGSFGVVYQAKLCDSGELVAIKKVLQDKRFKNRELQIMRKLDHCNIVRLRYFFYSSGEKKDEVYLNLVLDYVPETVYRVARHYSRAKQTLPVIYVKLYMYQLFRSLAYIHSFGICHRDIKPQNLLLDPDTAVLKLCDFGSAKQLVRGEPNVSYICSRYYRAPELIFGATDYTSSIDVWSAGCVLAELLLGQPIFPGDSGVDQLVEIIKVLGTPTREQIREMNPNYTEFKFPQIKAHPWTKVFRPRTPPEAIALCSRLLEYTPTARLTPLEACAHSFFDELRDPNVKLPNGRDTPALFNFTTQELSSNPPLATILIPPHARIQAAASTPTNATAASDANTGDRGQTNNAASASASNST
Sequence of Serine/threonine-protein kinase MARK2 (Homo sapiens) (Q7KZI7 whole entry): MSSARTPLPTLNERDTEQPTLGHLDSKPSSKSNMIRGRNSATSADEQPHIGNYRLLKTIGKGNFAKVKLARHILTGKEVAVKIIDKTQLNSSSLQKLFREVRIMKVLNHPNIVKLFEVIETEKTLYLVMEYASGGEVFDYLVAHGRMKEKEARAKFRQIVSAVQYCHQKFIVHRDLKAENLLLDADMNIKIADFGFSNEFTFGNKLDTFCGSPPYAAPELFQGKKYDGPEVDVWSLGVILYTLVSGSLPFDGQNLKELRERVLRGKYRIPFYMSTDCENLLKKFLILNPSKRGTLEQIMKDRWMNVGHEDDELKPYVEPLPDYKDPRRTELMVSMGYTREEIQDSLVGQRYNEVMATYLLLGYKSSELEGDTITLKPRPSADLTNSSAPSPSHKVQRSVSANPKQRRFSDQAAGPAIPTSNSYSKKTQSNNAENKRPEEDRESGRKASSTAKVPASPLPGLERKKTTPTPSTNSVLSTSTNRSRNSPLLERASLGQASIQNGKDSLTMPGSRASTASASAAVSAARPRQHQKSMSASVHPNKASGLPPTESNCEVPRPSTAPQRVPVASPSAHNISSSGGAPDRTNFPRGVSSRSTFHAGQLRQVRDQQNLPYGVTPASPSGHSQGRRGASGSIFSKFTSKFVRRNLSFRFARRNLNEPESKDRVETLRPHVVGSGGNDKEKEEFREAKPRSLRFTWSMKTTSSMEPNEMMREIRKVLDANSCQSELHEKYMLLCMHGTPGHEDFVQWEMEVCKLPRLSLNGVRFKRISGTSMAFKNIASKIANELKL
Sequence of Protein-tyrosine kinase 2-beta (Homo sapiens) (Q14289 whole entry, looked up): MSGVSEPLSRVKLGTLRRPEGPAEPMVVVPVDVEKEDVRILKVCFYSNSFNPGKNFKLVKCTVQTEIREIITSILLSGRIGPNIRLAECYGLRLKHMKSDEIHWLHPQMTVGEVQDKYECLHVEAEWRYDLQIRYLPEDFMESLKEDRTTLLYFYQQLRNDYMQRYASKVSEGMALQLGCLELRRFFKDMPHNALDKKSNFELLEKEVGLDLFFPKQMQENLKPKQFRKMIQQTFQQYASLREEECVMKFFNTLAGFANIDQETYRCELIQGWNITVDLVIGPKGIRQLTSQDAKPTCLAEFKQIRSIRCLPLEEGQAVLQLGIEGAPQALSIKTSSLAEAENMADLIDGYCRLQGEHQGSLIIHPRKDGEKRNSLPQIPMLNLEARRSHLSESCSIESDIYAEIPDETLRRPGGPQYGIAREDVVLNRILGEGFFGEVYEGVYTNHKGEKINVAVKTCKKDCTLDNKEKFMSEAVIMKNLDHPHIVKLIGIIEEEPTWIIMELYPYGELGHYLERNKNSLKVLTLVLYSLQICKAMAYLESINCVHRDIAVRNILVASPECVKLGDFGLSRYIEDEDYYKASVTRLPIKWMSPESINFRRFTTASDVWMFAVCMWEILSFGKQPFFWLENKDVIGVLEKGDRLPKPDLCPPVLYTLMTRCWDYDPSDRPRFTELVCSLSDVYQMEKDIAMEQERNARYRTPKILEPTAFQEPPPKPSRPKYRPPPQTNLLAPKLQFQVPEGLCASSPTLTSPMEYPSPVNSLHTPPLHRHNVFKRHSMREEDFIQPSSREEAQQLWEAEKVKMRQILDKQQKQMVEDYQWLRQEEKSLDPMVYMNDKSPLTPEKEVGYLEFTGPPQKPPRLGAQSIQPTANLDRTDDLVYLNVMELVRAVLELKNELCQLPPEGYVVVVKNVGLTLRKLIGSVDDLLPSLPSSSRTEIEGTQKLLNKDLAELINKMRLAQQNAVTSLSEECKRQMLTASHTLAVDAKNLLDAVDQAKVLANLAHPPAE
Sequence of Serine/threonine-protein kinase PAK 4 (Homo sapiens) (O96013 whole entry, looked up): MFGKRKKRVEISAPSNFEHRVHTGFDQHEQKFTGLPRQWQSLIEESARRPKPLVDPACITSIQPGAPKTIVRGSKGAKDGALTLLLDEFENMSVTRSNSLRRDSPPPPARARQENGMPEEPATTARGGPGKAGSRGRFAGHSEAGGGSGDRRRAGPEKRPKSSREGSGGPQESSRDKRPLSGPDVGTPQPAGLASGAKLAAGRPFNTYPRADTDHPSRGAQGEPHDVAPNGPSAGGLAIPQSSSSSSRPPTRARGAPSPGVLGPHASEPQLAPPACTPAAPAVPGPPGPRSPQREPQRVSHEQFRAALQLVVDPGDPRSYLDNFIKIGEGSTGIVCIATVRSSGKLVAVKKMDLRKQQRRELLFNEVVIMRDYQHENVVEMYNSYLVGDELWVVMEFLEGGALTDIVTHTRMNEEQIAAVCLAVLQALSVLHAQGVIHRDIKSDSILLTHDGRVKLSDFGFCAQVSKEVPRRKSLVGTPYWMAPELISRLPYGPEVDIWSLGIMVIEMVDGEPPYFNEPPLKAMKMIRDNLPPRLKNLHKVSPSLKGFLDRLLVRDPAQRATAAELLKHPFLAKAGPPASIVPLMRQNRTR

On to `CC(C)Nc1c(C#N)cnc2cc(-c3ccc(S(C)(=O)=O)cc3)ccc12`, for which the inhibition in data set [1] came to 71%; in [2], 13%; in data set [3], 19%.

As to `C[C@@H](Nc1c(C#N)cnc2cc(-c3ccc(-n4ccoc4=O)cc3)ccc12)C1CC1`, the inhibition in data set [4] is 44%; in [5], 1%; in data set [6] it was 40%; in data set [7], 4%; in data set [8], 10%; in [9], 18%. In addition, the inhibition in data set [10] turned out to be 12%; in data set [11], 19%; in data set [12], 7%; in data set [13], 16%; in [14], 8%; in data set [15], 5%. Moreover, the inhibition was 18% in [16]; 5% in data set [17]; 67% in data set [18]; -3% in data set [19]; 54% in data set [20].

Take `CC(C)Nc1c(C#N)cnc2cc(-c3cnn(C)c3)ccc12`: in the data set with Mus musculus, the inhibition in vivo at 100 mg/kg came to 44%. The inhibition in [1] was 89%; in data set [2], 12%; in data set [3], -7%. Besides, the Kp in data set [21] was 1.2. Moreover, the Drug uptake in the data set with Brain was 81.1 ng/mL. The compound further gave a Cp in the data set with Plasma of 31.8 ng/mL.
